Source: patent publication US12540120B2, “Herbicidal compounds” (SYNGENTA CROP PROTECTION AG, priority 2019, dated 2026)

Columns and labels:
Type in all cases: in vivo
[1] = test system: Amaranthus retoflexus (AMARE); assay: B2 Post-Emergence Efficacy—Test 2; details: post-emergence application, 250 g/ha, evaluated after 13 days (Test 2)
Summary of the method: (§1)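 Foliar application at 250 g/ha to seedlings 8 days post-sowing; carrier acetone/water (50:50), 0.5% Tween 20. Injury assessed at 13 days and banded into scores of 1 (0-19%) to 5 (80-100%).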

[2] = test system: Echinochloa crus-galli (ECHCG); assay: B2 Post-Emergence Efficacy—Test 2; details: post-emergence application, 250 g/ha, evaluated after 13 days (Test 2)
Summary of the method: as §1

[3] = test system: Ipomoea hederacea (IPOHE); assay: B2 Post-Emergence Efficacy—Test 2; details: post-emergence application, 250 g/ha, evaluated after 13 days (Test 2)
Summary of the method: as §1

[4] = test system: Lolium perenne (LOLPE); assay: B2 Post-Emergence Efficacy—Test 2; details: post-emergence application, 250 g/ha, evaluated after 13 days (Test 2)
Summary of the method: as §1

[5] = test system: Setaria faberi (SETFA); assay: B2 Post-Emergence Efficacy—Test 2; details: post-emergence application, 250 g/ha, evaluated after 13 days (Test 2)
Summary of the method: as §1

[6] = test system: Solanum nigrum (SOLNI); assay: B2 Post-Emergence Efficacy—Test 2; details: post-emergence application, 250 g/ha, evaluated after 13 days (Test 2)
Summary of the method: as §1

[7] = test system: Amaranthus retoflexus (AMARE); assay: B5 Pre-Emergence Efficacy—Test 2; details: 250 g/ha, evaluated after 13 days
Summary of the method: (§2)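 Compounds are applied pre-emergence at 250 g/ha, one day after sowing, in an aqueous acetone/water spray carrying 0.5% Tween 20. Damage is assessed 13 days later and scored from 1 (0-19%) to 5 (80-100%).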

[8] = test system: Solanum nigrum (SOLNI); assay: B5 Pre-Emergence Efficacy—Test 2; details: 250 g/ha, evaluated after 13 days
Summary of the method: as §2

[9] = test system: Echinochloa crus-galli (ECHCG); assay: B5 Pre-Emergence Efficacy—Test 2; design: key: 5-point scale: 5=80-100%, 4=60-79%, 3=40-59%, 2=20-39%, 1=0-19% damage; details: 250 g/ha, evaluated after 13 days
Summary of the method: as §2

[10] = test system: Ipomoea hederacea (IPOHE); assay: B5 Pre-Emergence Efficacy—Test 2; design: key: 5-point scale: 5=80-100%, 4=60-79%, 3=40-59%, 2=20-39%, 1=0-19% damage; details: 250 g/ha, evaluated after 13 days
Summary of the method: as §2

[11] = test system: Lolium perenne (LOLPE); assay: B5 Pre-Emergence Efficacy—Test 2; design: key: 5-point scale: 5=80-100%, 4=60-79%, 3=40-59%, 2=20-39%, 1=0-19% damage; details: 250 g/ha, evaluated after 13 days
Summary of the method: as §2

[12] = test system: Setaria faberi (SETFA); assay: B5 Pre-Emergence Efficacy—Test 2; design: key: 5-point scale: 5=80-100%, 4=60-79%, 3=40-59%, 2=20-39%, 1=0-19% damage; details: 250 g/ha, evaluated after 13 days
Summary of the method: as §2

Row | SMILES | percentage damage caused to the plant, five point scale, AMARE [1] | percentage damage caused to the plant, five point scale, ECHCG [2] | percentage damage caused to the plant, five point scale, IPOHE [3] | percentage damage caused to the plant, five point scale, LOLPE [4] | percentage damage caused to the plant, five point scale, SETFA [5] | percentage damage caused to the plant, five point scale, SOLNI [6] | Control of weed species after pre-emergence application, AMARE (percentage damage, five point scale) [7] | Control of weed species after pre-emergence application, SOLNI (percentage damage, five point scale) [8] | Control of weed species after pre-emergence application, ECHCG (percentage damage, five point scale) [9] | Control of weed species after pre-emergence application, IPOHE (percentage damage, five point scale) [10] | Control of weed species after pre-emergence application, LOLPE (percentage damage, five point scale) [11] | Control of weed species after pre-emergence application, SETFA (percentage damage, five point scale) [12]
1 | CCN(C)C(=O)c1ccc(CCc2c(Cl)ccc(F)c2-c2c(OC(=O)C(C)C)c(C)nn(C)c2=O)cc1F [Compound A-3.028, [5-[3-Chloro-2-[2-[4-[ethyl(methyl)carbamoyl]-3-fluoro-phenyl]ethyl]-6-fluoro-phenyl]-1,3-dimethyl-6-oxo-pyridazin-4-yl] 2-methylpropanoate] | 4 (4=60-79%) | 5 (5=80-100%) | 5 (5=80-100%) | 5 (5=80-100%) | 4 (4=60-79%) | 5 (5=80-100%) | 5 (5=80-100%) | 5 (5=80-100%) | 5 (5=80-100%) | 5 (5=80-100%) | 5 (5=80-100%) | 5 (5=80-100%)
2 | Cc1nn(C)c(=O)c(-c2c(F)ccc(Cl)c2/C=C/c2ccc(C3CC3)cc2)c1OC(=O)C(C)C [Compound A-4.038, [5-[3-chloro-2-[(E)-2-(4-cyclopropylphenyl)vinyl]-6-fluoro-phenyl]-1,3-dimethyl-6-oxo-pyridazin-4-yl] 2-methylpropanoate] | 1 (1=0-19%) | 1 (1=0-19%) | 2 (2=20-39%) | 1 (1=0-19%) | 0 | 5 (5=80-100%) | 2 (2=20-39%) | 1 (1=0-19%) | 0 | 0 | 0 | 0
3 | CC(=O)Nc1cc(CCc2c(Cl)ccc(F)c2-c2c(O)c(C)nn(C)c2=O)ccn1 [Compound A-1.044] | 5 (5=80-100%) | 3 (3=40-59%) | 0 | 4 (4=60-79%) | 5 (5=80-100%) | 5 (5=80-100%) | 5 (5=80-100%) | 5 (5=80-100%) | 3 (3=40-59%) | 1 (1=0-19%) | 2 (2=20-39%) | 5 (5=80-100%)
4 | Cc1nn(C)c(=O)c(-c2c(F)ccc(Cl)c2CCc2ccccc2C#N)c1OC(=O)C(C)C [Compound A-3.029] | 4 (4=60-79%) | 1 (1=0-19%) | 5 (5=80-100%) | 2 (2=20-39%) | 2 (2=20-39%) | 5 (5=80-100%) | 4 (4=60-79%) | 5 (5=80-100%) | 3 (3=40-59%) | 3 (3=40-59%) | 2 (2=20-39%) | 2 (2=20-39%)
5 | Cc1nn(C)c(=O)c(-c2c(F)ccc(Cl)c2/C=C/c2ccccc2C#N)c1OC(=O)C(C)C [Compound A-4.029] | 4 (4=60-79%) | 1 (1=0-19%) | 4 (4=60-79%) | 1 (1=0-19%) | 0 | 4 (4=60-79%) | 2 (2=20-39%) | 4 (4=60-79%) | 0 | 0 | 0 | 0
6 | Cc1nn(C)c(=O)c(-c2c(F)ccc(Cl)c2/C=C/c2ccc(O)cc2)c1O [Compound A-2.037] | 1 (1=0-19%) | 2 (2=20-39%) | 2 (2=20-39%) | 1 (1=0-19%) | 1 (1=0-19%) | 2 (2=20-39%) | 0 | 0 | 0 | 1 (1=0-19%) | 1 (1=0-19%) | 1 (1=0-19%)
7 | CSc1ccc(CCc2c(Cl)ccc(F)c2-c2c(O)c(C)nn(C)c2=O)cc1 [Compound A-1.039, 4-[3-chloro-6-fluoro-2-[2-(4-methylsulfanylphenyl)ethyl]-phenyl]-5-hydroxy-2,6-dimethyl-pyridazin-3-one] | 5 (5=80-100%) | 5 (5=80-100%) | 5 (5=80-100%) | 5 (5=80-100%) | 5 (5=80-100%) | 5 (5=80-100%) | 5 (5=80-100%) | 5 (5=80-100%) | 5 (5=80-100%) | 3 (3=40-59%) | 4 (4=60-79%) | 5 (5=80-100%)
8 | Cc1nn(C)c(=O)c(-c2c(F)ccc(Cl)c2CCc2ccc(OC(C)(C)C)cc2)c1O [Compound A-1.035] | 4 (4=60-79%) | 4 (4=60-79%) | 4 (4=60-79%) | 4 (4=60-79%) | 4 (4=60-79%) | 5 (5=80-100%) | 4 (4=60-79%) | 3 (3=40-59%) | 1 (1=0-19%) | 1 (1=0-19%) | 3 (3=40-59%) | 3 (3=40-59%)
9 | Cc1nn(C)c(=O)c(-c2c(F)ccc(Cl)c2CCc2ccc(S(=O)(=O)N(C)C)cc2)c1O [Compound A-1.025] | 5 (5=80-100%) | 5 (5=80-100%) | 5 (5=80-100%) | 5 (5=80-100%) | 5 (5=80-100%) | 5 (5=80-100%) | 5 (5=80-100%) | 5 (5=80-100%) | 5 (5=80-100%) | 1 (1=0-19%) | 4 (4=60-79%) | 5 (5=80-100%)
